Assay results reported in PubChem BioAssay AID2060912 (Molecular Pharmacology Branch, DTP, NCI, 2025).

System: HUVEC/MSC spheroids viability
Test: Human HUVEC/MSC cell line growth inhibition [KRAS2];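 for viability, T/C: percent of DMSO vehicle control luminescence so 100% = untreated viability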
Conditions: for viability, T/C: stronger effect = lower value
Summary of the method: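 HUVEC + hMSC stromal spheroids only, no malignant cells; 37 °C, 5% CO2. Drugs singly and in pairs, half-log series down from clinical Cmax (max 10 microM if Cmax undetermined).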

[1] = curve of first compound, second compound 0.0316 µM
[2] = curve of first compound, second compound 0.1 µM
[3] = curve of first compound, second compound 0.316 µM
[4] = curve of first compound, second compound 1 µM
[5] = curve of first compound, second compound 3.16 µM
[6] = curve of first compound, second compound 10 µM
[7] = second compound 0.0316 µM, first compound 0.0316 µM
[8] = second compound 0.0316 µM, first compound 0.1 µM
[9] = second compound 0.0316 µM, first compound 0.316 µM
[10] = second compound 0.0316 µM, first compound 1 µM
[11] = second compound 0.0316 µM, first compound 3.16 µM
[12] = second compound 0.0316 µM, first compound 10 µM
[13] = second compound 0.1 µM, first compound 0.0316 µM
[14] = second compound 0.1 µM, first compound 0.1 µM
[15] = second compound 0.1 µM, first compound 0.316 µM
[16] = second compound 0.1 µM, first compound 1 µM
[17] = second compound 0.1 µM, first compound 3.16 µM
[18] = second compound 0.1 µM, first compound 10 µM
[19] = second compound 0.316 µM, first compound 0.0316 µM
[20] = second compound 0.316 µM, first compound 0.1 µM
[21] = second compound 0.316 µM, first compound 0.316 µM
[22] = second compound 0.316 µM, first compound 1 µM
[23] = second compound 0.316 µM, first compound 3.16 µM
[24] = second compound 0.316 µM, first compound 10 µM
[25] = second compound 1 µM, first compound 0.0316 µM
[26] = second compound 1 µM, first compound 0.1 µM
[27] = second compound 1 µM, first compound 0.316 µM
[28] = second compound 1 µM, first compound 1 µM
[29] = second compound 1 µM, first compound 3.16 µM
[30] = second compound 1 µM, first compound 10 µM
[31] = second compound 3.16 µM, first compound 0.0316 µM
[32] = second compound 3.16 µM, first compound 0.1 µM
[33] = second compound 3.16 µM, first compound 0.316 µM
[34] = second compound 3.16 µM, first compound 1 µM
[35] = second compound 3.16 µM, first compound 3.16 µM
[36] = second compound 3.16 µM, first compound 10 µM
[37] = second compound 10 µM, first compound 0.0316 µM
[38] = second compound 10 µM, first compound 0.1 µM
[39] = second compound 10 µM, first compound 0.316 µM
[40] = second compound 10 µM, first compound 1 µM
[41] = second compound 10 µM, first compound 3.16 µM
[42] = second compound 10 µM, first compound 10 µM

Work on `Cn1nccc1Nc1nccc(-c2cc3c(s2)C(C)(C)N(CCN2CCOCC2)C3=O)n1` + COc1cc2nc(C)nc(NC(C)c3cc(N)cc(C(F)(F)F)c3)c2cc1OC1CCOC1 yielded an IC50 [1] of 2.41 µM, an IC50 [2] of 2.32 µM and an IC50 [3] of 2.56 µM. The IC50 [4] was 2.57 µM, the IC50 [5] was 2.59 µM and the IC50 [6] was 2.22 µM. For the same molecule, the viability, T/C [7] was 104%, the viability, T/C [8] was 124% and the viability, T/C [9] was 124%. It also gave a viability, T/C [10] of 108%, a viability, T/C [11] of 32.1% and a viability, T/C [12] of 4.35%. It also gave a viability, T/C [13] of 90.2%, a viability, T/C [14] of 115% and a viability, T/C [15] of 110%. For the same molecule, the viability, T/C [16] was 92.1%, the viability, T/C [17] was 34.4% and the viability, T/C [18] was 4.06%. It also gave a viability, T/C [19] of 108%, a viability, T/C [20] of 119% and a viability, T/C [21] of 107%. It also gave a viability, T/C [22] of 95%, a viability, T/C [23] of 39.9% and a viability, T/C [24] of 3.01%. It also gave a viability, T/C [25] of 85.6%, a viability, T/C [26] of 113% and a viability, T/C [27] of 113%. It also gave a viability, T/C [28] of 106%, a viability, T/C [29] of 37.8% and a viability, T/C [30] of 7.24%. The viability, T/C [31] was 92.5%, the viability, T/C [32] was 111% and the viability, T/C [33] was 121%. For the same molecule, the viability, T/C [34] was 104%, the viability, T/C [35] was 38.5% and the viability, T/C [36] was 3.79%. For the same molecule, the viability, T/C [37] was 72.5%, the viability, T/C [38] was 92.9% and the viability, T/C [39] was 93.5%. The viability, T/C [40] was 88.5%, the viability, T/C [41] was 33.6% and the viability, T/C [42] was 0.79%.
`CC(C)NCC(C(=O)N1CCN(c2ncnc3c2C(C)CC3O)CC1)c1ccc(Cl)cc1` (stereo not drawn) + C=CC(=O)N1CCN(c2nc(=O)n(-c3c(C)ccnc3C(C)C)c3nc(-c4c(O)cccc4F)c(F)cc23)C(C)C1 was tested, and the IC50 [1] was > 10 µM, the IC50 [2] was > 10 µM and the IC50 [3] was > 10 µM. The IC50 [4] was > 10 µM, the IC50 [5] was > 10 µM and the IC50 [6] was > 10 µM. The viability, T/C [7] was 87.5%, the viability, T/C [8] was 93.7% and the viability, T/C [9] was 97.1%. The viability, T/C [10] was 77.7%, the viability, T/C [11] was 52.4% and the viability, T/C [12] was 53.6%. For the same molecule, the viability, T/C [13] was 92.4%, the viability, T/C [14] was 104% and the viability, T/C [15] was 85.8%. For the same molecule, the viability, T/C [16] was 76.1%, the viability, T/C [17] was 54.9% and the viability, T/C [18] was 64.9%. For the same molecule, the viability, T/C [19] was 98.7%, the viability, T/C [20] was 102% and the viability, T/C [21] was 82.2%. The viability, T/C [22] was 65.8%, the viability, T/C [23] was 59.4% and the viability, T/C [24] was 63.1%. The viability, T/C [25] was 105%, the viability, T/C [26] was 99.4% and the viability, T/C [27] was 96.4%. It also gave a viability, T/C [28] of 71.3%, a viability, T/C [29] of 58% and a viability, T/C [30] of 68.1%. For the same molecule, the viability, T/C [31] was 96.8%, the viability, T/C [32] was 124% and the viability, T/C [33] was 86.6%. The viability, T/C [34] was 84.6%, the viability, T/C [35] was 62.9% and the viability, T/C [36] was 68.9%. For the same molecule, the viability, T/C [37] was 110%, the viability, T/C [38] was 119% and the viability, T/C [39] was 102%. The viability, T/C [40] was 64.5%, the viability, T/C [41] was 65% and the viability, T/C [42] was 47.2%.
With `COC(=O)c1ccc2c(C(=Nc3ccc(N(C)C(=O)CN4CCN(C)CC4)cc3)c3ccccc3)c(O)[nH]c2c1` + CC1OCC2(CCN(c3cnc(Sc4ccnc(N)c4Cl)c(N)n3)CC2)C1N the IC50 [1] was 1.55 µM, the IC50 [2] was 1.18 µM and the IC50 [3] was 0.62 µM. For the same molecule, the IC50 [4] was 0.623 µM, the IC50 [5] was 0.528 µM and the IC50 [6] was 0.353 µM. It also gave a viability, T/C [7] of 112%, a viability, T/C [8] of 111% and a viability, T/C [9] of 89.7%. The viability, T/C [10] was 52.6%, the viability, T/C [11] was 38.8% and the viability, T/C [12] was 2.26%. It also gave a viability, T/C [13] of 94.1%, a viability, T/C [14] of 106% and a viability, T/C [15] of 77%. It also gave a viability, T/C [16] of 47.8%, a viability, T/C [17] of 32% and a viability, T/C [18] of 0.33%. For the same molecule, the viability, T/C [19] was 108%, the viability, T/C [20] was 82% and the viability, T/C [21] was 73.4%. The viability, T/C [22] was 34.9%, the viability, T/C [23] was 16.6% and the viability, T/C [24] was 1.89%. It also gave a viability, T/C [25] of 74.3%, a viability, T/C [26] of 72.8% and a viability, T/C [27] of 74.2%. It also gave a viability, T/C [28] of 33.4%, a viability, T/C [29] of 0.59% and a viability, T/C [30] of 0.29%. For the same molecule, the viability, T/C [31] was 69.4%, the viability, T/C [32] was 73.3% and the viability, T/C [33] was 64.5%. For the same molecule, the viability, T/C [34] was 30.9%, the viability, T/C [35] was 0.39% and the viability, T/C [36] was 0.29%. It also gave a viability, T/C [37] of 63.5%, a viability, T/C [38] of 61.1% and a viability, T/C [39] of 53.8%. For the same molecule, the viability, T/C [40] was 14.7%, the viability, T/C [41] was 0.37% and the viability, T/C [42] was 0.38%.
In the case of `COC(=O)c1ccc2c(C(=Nc3ccc(N(C)C(=O)CN4CCN(C)CC4)cc3)c3ccccc3)c(O)[nH]c2c1` + C=CC(=O)N1CCN(c2nc(=O)n(-c3c(C)ccnc3C(C)C)c3nc(-c4c(O)cccc4F)c(F)cc23)C(C)C1, the IC50 [1] is reported as 2.67 µM, the IC50 [2] is reported as 2.77 µM and the IC50 [3] is reported as 3.64 µM. For the same molecule, the IC50 [4] was 3.14 µM, the IC50 [5] was 3.92 µM and the IC50 [6] was 2.42 µM. It also gave a viability, T/C [7] of 92.2%, a viability, T/C [8] of 85.4% and a viability, T/C [9] of 85.9%. It also gave a viability, T/C [10] of 61.6%, a viability, T/C [11] of 51.7% and a viability, T/C [12] of 3.33%. It also gave a viability, T/C [13] of 86.8%, a viability, T/C [14] of 101% and a viability, T/C [15] of 99.8%. For the same molecule, the viability, T/C [16] was 66%, the viability, T/C [17] was 50.3% and the viability, T/C [18] was 0.39%. The viability, T/C [19] was 79.2%, the viability, T/C [20] was 87.9% and the viability, T/C [21] was 96.2%. It also gave a viability, T/C [22] of 83.4%, a viability, T/C [23] of 56.5% and a viability, T/C [24] of 3.54%. For the same molecule, the viability, T/C [25] was 88.4%, the viability, T/C [26] was 101% and the viability, T/C [27] was 115%. It also gave a viability, T/C [28] of 75%, a viability, T/C [29] of 52.5% and a viability, T/C [30] of 0.39%. The viability, T/C [31] was 94.3%, the viability, T/C [32] was 149% and the viability, T/C [33] was 126%. The viability, T/C [34] was 80.5%, the viability, T/C [35] was 67.8% and the viability, T/C [36] was 0.46%. For the same molecule, the viability, T/C [37] was 90.2%, the viability, T/C [38] was 102% and the viability, T/C [39] was 145%. For the same molecule, the viability, T/C [40] was 85.4%, the viability, T/C [41] was 39.4% and the viability, T/C [42] was 1.51%.
With `CC(=O)Nc1cccc(-n2c(=O)n(C3CC3)c(=O)c3c(Nc4ccc(I)cc4F)n(C)c(=O)c(C)c32)c1` the viability, T/C (compound 94.9 pM) was 110% [middle of 5 runs], the viability, T/C (compound 0.000949 µM) was 118% [middle of 5 runs] and the viability, T/C (compound 0.00949 µM) was 71.8% [middle of 5 runs]. The viability, T/C (compound 0.03 µM) was 17.6% [middle of 5 runs] and the IC50 (curve of compound) was 14.7 nM [middle of 5 runs].
